Key:
[1] = target: 3-phosphoinositide-dependent protein kinase 1 (Homo sapiens) (UniProt O15530); experiment: 384-Well TR-Fret assay using AKT-tide peptide substrate.
[2] = target: T1, 3-phosphoinositide-dependent protein kinase 1 (Homo sapiens, UniProt O15530); experiment: TR-Fret Assay
T1 sequence (O15530 whole entry): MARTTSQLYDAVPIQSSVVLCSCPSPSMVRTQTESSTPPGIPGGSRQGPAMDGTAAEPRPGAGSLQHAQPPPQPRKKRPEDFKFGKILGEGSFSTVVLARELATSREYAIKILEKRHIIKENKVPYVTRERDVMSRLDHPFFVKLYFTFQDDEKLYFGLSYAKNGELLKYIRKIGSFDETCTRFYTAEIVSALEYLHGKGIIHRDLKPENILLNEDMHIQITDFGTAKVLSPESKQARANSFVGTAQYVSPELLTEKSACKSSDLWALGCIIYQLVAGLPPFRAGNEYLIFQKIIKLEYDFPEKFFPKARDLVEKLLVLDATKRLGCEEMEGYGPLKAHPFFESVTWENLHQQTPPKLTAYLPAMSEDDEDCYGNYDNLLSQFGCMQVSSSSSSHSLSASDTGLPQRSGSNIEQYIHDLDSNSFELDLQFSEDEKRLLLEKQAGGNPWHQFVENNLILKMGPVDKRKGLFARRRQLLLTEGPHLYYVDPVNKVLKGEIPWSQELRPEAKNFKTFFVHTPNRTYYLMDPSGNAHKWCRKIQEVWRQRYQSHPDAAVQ
Text: 1536-Well TR-Fret uHTS assay PDK1-tide1 peptide substrate.

IC50 [1] | IC50 [2] | Compound
> 30000 nM | 18000 nM | CCCCCNC(=O)O[C@@H]1CC[C@@H]2[C@@H](C(=O)Nc3ccc(N(C)C)cc3)C[C@H]1N2CCC(C)C [Alkaloid 2]
14 nM | 11 nM | Cc1[nH]nc2c1c(=O)n(CCCN)c1ccc(Br)cc21 [Compound # 1]
28 nM | 20 nM | CC(C)(C)c1nc2c3ccc(F)cc3c3c(=O)[nH]ccc3c2[nH]1 [Jak Inhibitor 1]
